Here are results for two compounds from patent US20240294553A1, “SIZE-SELECTIVE ACYCLIC CHELATORS AND THEIR USE FOR THE RECOVERY OF RARE EARTH ELEMENTS” (UT-Battelle, LLC, priority 2023, published 2024).

The nature of data set [1]: Leaching of rare-earth elements from mixed rare-earth hydroxide. Particulars: RT, 26 h, 20 mM lixiviant; for selectivity of leaching of REEs (percent dissolution): pH 8.2, CHES/CAPS buffer, 15 mg/mL (La,Nd,Eu,Dy,Y)OH3, FIG. 11. The method, then: A solution of CHES (400 mM) and CAPS (400 mM) was prepared in H2O. The pH was left unadjusted. Buffered solutions of acyclopa at pH 8.2, 9, and 10 were prepared by adding an aliquot of acyclopa (6.65 mL of a 75.17 mM aqueous stock solution) to a volumetric flask (25 mL) containing CHES/CAPS (12.5 mL). The solution was diluted with concentrated NaOH and H2O to the desired final pH. The final ligand concentration was 20 mM and the final CHES and CAPS concentrations were 200 mM each. Buffered solutions of EDTA were prepared in an analogous manner. For control samples without chelator, CHES/CAPS buffer (200 mM each) was prepared separately for each pH.
Leaching experiments were setup as follows: Various quantities (5±0.3 mg, 10±0.5 mg, and 15±0.5 mg) of (La,Nd,Eu,Dy,Y)OH3 were massed into 2 mL flat-bottomed screw-cap polypropylene tubes. An aliquot of lixiviant solution or buffer only (1 mL) was added to each tube. The samples were rotated end-over-end at 35 RPM and ambient temperature (71±1° F.). At pre-determined time points, the suspensions were centrifuged, and an aliquot of the supernatant (10 μL) was carefully removed and placed into 2% HNO3 (4.990 mL) for ICP-MS analysis. The samples were shaken to break up the pellets and returned to the rotating wheels. At the final time point, the suspensions were filtered via a 96-well filter plate (Pall AcroPrep Advance 0.2 μm Supor Short Tip) and sampled for ICP-MS. The final pH of representative samples was recorded. […] Also, the separation factor was calculated according to the equation below. The leaching of REEs (expressed as percent dissolution) from (La,Nd,Eu,Dy,Y)OH3 by acyclopa as a function of pH (pH 8.2, pH 9, or pH 10) using a CHES/CAPS buffer, RT, 26 h, 20 mM lixiviant, and 5 mg/mL (La,Nd,Eu,Dy,Y)OH3 are shown in FIG. 9. The leaching of REEs (expressed as concentration) from (La,Nd,Eu,Dy,Y)OH3 by acyclopa as a function of solid loading at a pH of 9 using a CHES/CAPS buffer, RT, 26 h, 20 mM lixiviant, and 5-15 mg/mL (La,Nd,Eu,Dy,Y)OH3 are shown in FIG. 10. […]

Data set [2] in a line: Protonation constants and lanthanide complex stabilities by potentiometric titration. In kind it is binding. The method, then: Protonation constants and lanthanide (Ln) stability constants of acyclopa and acyclopa-XL were obtained by potentiometric titration using either a Metrohm Titrando 888 titrator or an 855 Robotic Titrosampler connected to an 805 Dosimat. Both titration systems were equipped with Ross Orion combination electrodes (8103BN, ThermoFisher Scientific), Metrohm 806 exchange units with automatic burets (10 mL), and Tiamo 2.5 software. The titration vessel was fitted with a removable glass cell and thermostated at 25° C. using an Isotemp 500LC recirculating chiller (Fisher Scientific). CO2 was excluded from the titration vessel using a small positive pressure of argon bubbled through 30 wt % KOH. […]
Before every ligand or ligand-metal titration, the electrode was calibrated in terms of the hydrogen-ion concentration by titrating a solution of standardized HCl (0.005 M) containing supporting electrolyte (KCl=0.095 M) with standardized KOH. Data within the pH ranges of 2.3-3.2 and 10.8-11.3 were analyzed using the program Glee (version 3.0.21) to obtain the standard electrode potential (E0) and slope factor. […] Their exact concentrations were determined potentiometrically from the two sharp endpoints of their titration curves using the formula ((VEP2−VEP1)/npKa)*[KOH]. […]

The nature of data set [3]: Recovery and reuse of acyclopa in multiple leach cycles (oxalic acid stripping). The method, then:
The release of REEs from acyclopa and their subsequent precipitation as REE2(C2O4)3 was investigated as a function of pH and oxalic acid equivalents. Pregnant leach solutions were prepared at pH 8.2 using acyclopa and La(OH)3, and varying equivalents of H2C2O4 were added. The pH of the samples was reduced stepwise to pH 6, 5, 4, and 3 using HCl. The concentration of La remaining in the supernatant at each pH was analyzed by ICP-MS. The release of REEs from acyclopa and their subsequent precipitation as REE2(C2O4)3 as a function of pH and oxalic acid equivalents is shown in FIG. 12.
Next, the ability to reuse acyclopa in multiple leach cycles was investigated. Leaching samples were prepared as described above at pH 8.2 using acyclopa and La(OH)3. […] To this solution, 2 equivalents of oxalic acid were added, and the pH was adjusted to 3 using HCl. The resulting precipitate was removed. The pH of the filtrate was re-adjusted to 8.2 using NaOH, and another portion of La(OH)3 was added. The suspension was stirred for 24 h, and the percent La dissolved was measured by ICP-MS. In subsequent precipitation cycles, only 1 equivalent of oxalic acid was added. Using this method, ˜75% dissolution was maintained over 4 dissolution/precipitation cycles. The results are shown graphically in FIG. 13.

The structures appear in SMILES notation.

Take `O=C(O)CN(CCN(CC(=O)O)CC(=O)O)CC(=O)O` [EDTA, ethylenediaminetetraacetic acid, reference compound]: in data set [1], the “selectivity of leaching of REEs (percent dissolution)” value is on record as “fails to demonstrate any selectivity”.
Take `O=C(O)c1cccc(CN(CCO)CCOCCOCCN(CCO)Cc2cccc(C(=O)O)n2)n1` [acyclopa, 6,6′-(2,11-bis(2-hydroxyethyl)-5,8-dioxa-2,11-diazadodecane-1,12-diyl)dipicolinic acid]: the “Δ log KLa-Lu (difference of stability constants log KML)” value in data set [2] (25° C., ionic strength 0.1 M KCl, La^3+ versus Lu^3+) is 4.27. The “affinity for rare-earth elements (in words)” value in data set [2] (log KML versus ionic radius, FIG. 6) was “high affinity for large, light REEs and low affinity for small, heavy REEs”. Besides, in data set [1], the “selectivity of leaching of REEs (percent dissolution)” value is on record as “preferentially leaches large over small REEs”. Moreover, the “effect of increasing solid loading on La/Y separation” value in data set [1] (pH 9, CHES/CAPS buffer, 5-15 mg/mL (La,Nd,Eu,Dy,Y)OH3, FIG. 10) was “significantly increases separative leaching of La from Y”. Besides, in data set [3] (pH 8.2, 24 h, maintained over 4 dissolution/precipitation cycles, ICP-MS, FIG. 13), the “percent La dissolved (dissolution of La(OH)3)” value is roughly 75%. Moreover, in data set [3] (pH 8.2, first leach), the “initial dissolution of La(OH)3” value is reported as “nearly all of the La(OH)3 was dissolved initially”.
